“Also recorded” adds a separate entry of the source.
Legend:
Assay type in all cases: biochemical
Conditions in all cases: purified enzyme, 5 to 0.02 μM
HDAC4 = target: T1, HDAC4 (Homo sapiens, UniProt P56524); assay: Individualized HDAC assay, HDAC4
T1 construct: purchased BPS Biosciences
Protocol: (§1) The activity of the curcuphenol analogues was assessed with purified HDAC enzymes from all classes I, II, and IV, as well as a select member of HDAC class III (SIRT1). HDACs 1-9 and SIRT1 were evaluated using HDAC Fluorogenic Assay Kits (BPS Biosciences). All assays were completed in black-sided clear-bottom 96 well plates (PerkinElmer), and all treatments were plated in triplicates. Treatment started at 5 μM and was two-fold diluted to a concentration 0.02 μM. The assays were measured using the Synergy HI hybrid reader (BioTek) and Gen5 software (BioTek), excitation was set to 360 nm and detection was measured at 450 nm with a gain of 100. Alternatively HDAC 10 and 11 (BPS Biosciences) were optimized for HDAC concentration using the HDAC-Glo™ I/II Assay and Screening System (Promega). Following optimization each HDAC was run following the Promega protocol in black-sided clear-bottomed 96 well plates in triplicates with same treatments listed above (PerkinElmer). Luminescence was read 30 minutes after HDAC-Glo™I/II reagent was added using the Synergy HI hybrid reader (BioTek) and Gen5 software (Bio-Tek). […] To calculate percent activity, the average of blank wells was subtracted from all treatment groups. The relative mean of activity of the HDAC being measured was determined and all wells that received treatment were divided this average, to give a percentage of activity.
(§2) To evaluate the effect of the compounds on specific HDACs, their activity was assessed with purified HDAC enzymes from all classes I, II, and IV, as well as a select member of HDAC class III (SIRT1). HDACs 1-9 and SIRT1 were evaluated using HDAC Fluorogenic Assay Kits (BPS Biosciences) following the manufacturer's recommendations. Compound treatment started at 5 μM and was two-fold diluted to a concentration 0.02 μM. […] The assays were measured using the Synergy HI hybrid reader (BioTek) and Gen5 software (Bio-Tek). […] To calculate the fold change in HDAC activity, the values from each treated well were divided by the relative mean of activity of the specific HDAC being measured.

HDAC1 = target: T2, HDAC1 (Homo sapiens, UniProt Q13547); assay: Individualized HDAC assay, HDAC1
T2 construct: purchased BPS Biosciences
Protocol: The activity of the curcuphenol analogues was assessed with purified HDAC enzymes from all classes I, II, and IV, as well as a select member of HDAC class III (SIRT1). HDACs 1-9 and SIRT1 were evaluated using HDAC Fluorogenic Assay Kits (BPS Biosciences). All assays were completed in black-sided clear-bottom 96 well plates (PerkinElmer), and all treatments were plated in triplicates. Treatment started at 5 μM and was two-fold diluted to a concentration 0.02 μM. The assays were measured using the Synergy HI hybrid reader (BioTek) and Gen5 software (BioTek), excitation was set to 360 nm and detection was measured at 450 nm with a gain of 100. […] Luminescence was read 30 minutes after HDAC-Glo™I/II reagent was added using the Synergy HI hybrid reader (BioTek) and Gen5 software (Bio-Tek). […] The relative mean of activity of the HDAC being measured was determined and all wells that received treatment were divided this average, to give a percentage of activity.
To evaluate the effect of the compounds on specific HDACs, their activity was assessed with purified HDAC enzymes from all classes I, II, and IV, as well as a select member of HDAC class III (SIRT1). HDACs 1-9 and SIRT1 were evaluated using HDAC Fluorogenic Assay Kits (BPS Biosciences) following the manufacturer's recommendations. […] The assays were measured using the Synergy HI hybrid reader (BioTek) and Gen5 software (Bio-Tek). […]

SIRT1 = target: T3, SIRT1 (Homo sapiens, UniProt Q96EB6); assay: Individualized HDAC assay, SIRT1
T3 construct: purchased BPS Biosciences
T3 sequence (Q96EB6 1-747): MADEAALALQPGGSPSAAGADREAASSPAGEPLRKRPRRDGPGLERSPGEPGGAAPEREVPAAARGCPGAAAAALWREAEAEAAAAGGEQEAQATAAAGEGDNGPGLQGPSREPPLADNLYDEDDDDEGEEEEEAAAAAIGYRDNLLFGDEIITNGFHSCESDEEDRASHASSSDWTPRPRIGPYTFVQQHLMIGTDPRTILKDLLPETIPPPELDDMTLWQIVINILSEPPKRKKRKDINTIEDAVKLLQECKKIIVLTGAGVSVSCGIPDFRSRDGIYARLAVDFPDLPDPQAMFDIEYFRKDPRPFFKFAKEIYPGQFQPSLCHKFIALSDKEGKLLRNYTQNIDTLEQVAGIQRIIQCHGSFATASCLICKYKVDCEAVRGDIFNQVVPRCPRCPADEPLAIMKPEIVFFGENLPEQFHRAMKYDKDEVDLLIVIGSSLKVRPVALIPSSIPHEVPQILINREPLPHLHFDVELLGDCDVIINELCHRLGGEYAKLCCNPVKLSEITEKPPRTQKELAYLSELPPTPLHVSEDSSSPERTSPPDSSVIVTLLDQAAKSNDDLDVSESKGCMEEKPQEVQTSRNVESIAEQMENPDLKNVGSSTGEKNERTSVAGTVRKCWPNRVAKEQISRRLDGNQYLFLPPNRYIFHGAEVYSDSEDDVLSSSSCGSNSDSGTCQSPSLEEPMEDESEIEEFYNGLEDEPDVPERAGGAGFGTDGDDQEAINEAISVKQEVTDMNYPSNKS
Protocol: as §1
To evaluate the effect of the compounds on specific HDACs, their activity was assessed with purified HDAC enzymes from all classes I, II, and IV, as well as a select member of HDAC class III (SIRT1). HDACs 1-9 and SIRT1 were evaluated using HDAC Fluorogenic Assay Kits (BPS Biosciences) following the manufacturer's recommendations. Compound treatment started at 5 μM and was two-fold diluted to a concentration 0.02 μM. Alternatively, HDAC 10 and 11 assays (BPS Biosciences) were optimized to be used with the HDAC-Glo™ I/II Assay and Screening System (Promega). The assays were measured using the Synergy HI hybrid reader (BioTek) and Gen5 software (Bio-Tek). […] To calculate the fold change in HDAC activity, the values from each treated well were divided by the relative mean of activity of the specific HDAC being measured.

HDAC7 = target: T4, HDAC7 (Homo sapiens, UniProt Q8WUI4); assay: Individualized HDAC assay, HDAC7
T4 construct: purchased BPS Biosciences
T4 sequence (Q8WUI4 1-952): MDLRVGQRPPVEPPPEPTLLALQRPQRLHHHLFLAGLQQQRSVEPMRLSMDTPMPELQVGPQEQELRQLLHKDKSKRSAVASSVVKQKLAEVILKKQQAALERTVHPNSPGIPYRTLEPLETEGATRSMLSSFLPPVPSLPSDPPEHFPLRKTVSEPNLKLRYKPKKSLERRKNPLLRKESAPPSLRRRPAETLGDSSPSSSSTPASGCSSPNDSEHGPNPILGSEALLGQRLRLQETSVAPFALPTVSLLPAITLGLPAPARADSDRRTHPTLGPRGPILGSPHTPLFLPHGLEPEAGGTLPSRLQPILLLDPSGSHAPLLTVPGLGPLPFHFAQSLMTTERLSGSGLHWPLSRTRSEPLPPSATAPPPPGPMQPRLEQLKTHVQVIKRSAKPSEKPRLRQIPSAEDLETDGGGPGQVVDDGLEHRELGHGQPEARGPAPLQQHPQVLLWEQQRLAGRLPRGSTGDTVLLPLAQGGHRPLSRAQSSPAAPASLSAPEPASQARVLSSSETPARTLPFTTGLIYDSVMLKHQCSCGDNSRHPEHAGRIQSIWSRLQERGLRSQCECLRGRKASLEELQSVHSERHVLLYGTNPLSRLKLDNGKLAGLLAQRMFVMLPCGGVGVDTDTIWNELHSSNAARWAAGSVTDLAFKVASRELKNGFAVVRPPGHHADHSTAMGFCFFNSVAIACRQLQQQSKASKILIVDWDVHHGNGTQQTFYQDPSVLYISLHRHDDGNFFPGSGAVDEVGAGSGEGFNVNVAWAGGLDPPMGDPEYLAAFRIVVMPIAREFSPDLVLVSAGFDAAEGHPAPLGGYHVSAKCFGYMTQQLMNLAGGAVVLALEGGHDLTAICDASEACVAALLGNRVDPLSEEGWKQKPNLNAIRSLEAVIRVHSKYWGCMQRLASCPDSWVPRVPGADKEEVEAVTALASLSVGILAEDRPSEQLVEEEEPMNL
Protocol: as §1, §2

T1 sequence (P56524 whole entry): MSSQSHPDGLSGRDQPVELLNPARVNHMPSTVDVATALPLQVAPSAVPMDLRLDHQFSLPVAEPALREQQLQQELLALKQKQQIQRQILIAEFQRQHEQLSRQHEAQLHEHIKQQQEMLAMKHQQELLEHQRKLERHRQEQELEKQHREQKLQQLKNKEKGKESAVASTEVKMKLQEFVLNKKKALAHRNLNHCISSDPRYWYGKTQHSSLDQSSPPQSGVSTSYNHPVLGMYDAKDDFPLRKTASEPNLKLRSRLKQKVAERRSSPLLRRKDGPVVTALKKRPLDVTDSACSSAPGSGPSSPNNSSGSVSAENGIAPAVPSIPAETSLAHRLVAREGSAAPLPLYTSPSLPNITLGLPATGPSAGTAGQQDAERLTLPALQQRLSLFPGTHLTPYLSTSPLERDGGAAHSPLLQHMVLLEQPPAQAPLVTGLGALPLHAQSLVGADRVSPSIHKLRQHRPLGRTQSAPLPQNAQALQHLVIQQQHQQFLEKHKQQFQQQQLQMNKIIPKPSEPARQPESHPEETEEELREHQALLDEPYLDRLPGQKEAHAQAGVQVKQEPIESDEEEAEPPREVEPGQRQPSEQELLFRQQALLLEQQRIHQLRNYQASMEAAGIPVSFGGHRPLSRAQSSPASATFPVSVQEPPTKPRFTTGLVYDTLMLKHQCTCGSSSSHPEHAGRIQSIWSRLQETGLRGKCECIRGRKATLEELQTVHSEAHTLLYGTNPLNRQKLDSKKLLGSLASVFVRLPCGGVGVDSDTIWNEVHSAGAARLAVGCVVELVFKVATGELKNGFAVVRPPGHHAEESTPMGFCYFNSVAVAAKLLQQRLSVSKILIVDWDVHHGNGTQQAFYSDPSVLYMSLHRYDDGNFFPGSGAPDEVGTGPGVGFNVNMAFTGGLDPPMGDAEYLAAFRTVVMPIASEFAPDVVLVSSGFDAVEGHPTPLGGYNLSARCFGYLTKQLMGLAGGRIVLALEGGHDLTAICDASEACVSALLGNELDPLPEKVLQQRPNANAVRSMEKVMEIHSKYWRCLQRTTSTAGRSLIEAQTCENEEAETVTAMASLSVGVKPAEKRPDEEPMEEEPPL
T2 sequence (Q13547 whole entry): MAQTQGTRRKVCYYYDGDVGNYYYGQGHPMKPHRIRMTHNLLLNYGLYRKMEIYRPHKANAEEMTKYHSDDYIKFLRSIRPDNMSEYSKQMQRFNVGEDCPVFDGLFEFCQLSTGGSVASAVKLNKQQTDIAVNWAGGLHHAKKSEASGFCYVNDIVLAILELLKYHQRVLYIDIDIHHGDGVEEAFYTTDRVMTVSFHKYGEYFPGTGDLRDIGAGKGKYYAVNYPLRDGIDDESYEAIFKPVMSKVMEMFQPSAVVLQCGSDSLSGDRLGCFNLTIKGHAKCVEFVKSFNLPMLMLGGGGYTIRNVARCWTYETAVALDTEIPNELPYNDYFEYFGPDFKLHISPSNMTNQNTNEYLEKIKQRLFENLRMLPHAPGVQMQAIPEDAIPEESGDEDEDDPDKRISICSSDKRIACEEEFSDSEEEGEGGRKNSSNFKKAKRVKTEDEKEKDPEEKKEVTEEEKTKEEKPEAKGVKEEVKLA

| Compound | HDAC4 activity (HDAC4) | HDAC1 activity (HDAC1) | SIRT1 activity (SIRT1) | HDAC7 activity (HDAC7) | HDAC4 activity (HDAC4; listed as PO-3-97-1) | SIRT1 activity (SIRT1; listed as P03-7-1) | SIRT1 activity (SIRT1; listed as PO-3-97-1) | HDAC7 activity (HDAC7; listed as PO-3-97-1) |
| --- | --- | --- | --- | --- | --- | --- | --- | --- |
| CC(C)=CCCCc1ccc(C)cc1O [P02-113] | no change in activity; also recorded: did not affect the activity; also recorded: unaffected | no significant change in HDAC activity | did not demonstrate a change in activity; also recorded: no effect was observed; also recorded: no change in activity | no change in activity; also recorded: did not affect the activity; also recorded: unaffected |  |  |  |  |
| COc1ccc(C(C)CCC=C(C)C)c(O)c1 (stereo not drawn) [P03-97-1] | no change in activity; also recorded: unaffected | no significant change in HDAC activity | did not demonstrate a change in activity | no change in activity; also recorded: unaffected | did not affect the activity | no change in activity | no effect was observed | did not affect the activity |

Reference: patent US20220105051A1, “COMPOUNDS FOR INCREASING MHC-I EXPRESSION AND MODULATING HISTONE DEACETYLASE ACTIVITY” (Cava Healthcare Inc., priority 2019, published 2022)
